From US20240190823A1, “NRF2 INHIBITORS AND USES THEREOF” (Board of Trustees of Michigan State University, priority 2021, published 2024)

Tests used:
[1] = tested on: A549 cells; assay: In vivo treatment study, subcutaneous A549 xenograft; settings: for tumor growth (tumor volume): i.p. daily (M-F), compound 1 50 mg/kg BID, carboplatin 5 mg/kg
Description: Male athymic nude mice (Harlan Laboratories, 6 week-old) were injected in the flank with 5×10^6 A549 cells. Cell line authenticity and absence of pathogens in the A549 cells were confirmed before establishing the model (I DEXX BioAnalytics). […] All mice were weighed twice a week, and tumors were measured twice a week using a caliper. All mice were sacrificed after 4 weeks of treatment and harvested for analysis of Nrf2 expression and cell proliferation.
Tumors were harvested and fixed in 10% neutral buffered formalin. Sectioned were obtained for immunohistochemistry staining. Sodium citrate buffer (10 mM, Vector) was used for antigen retrieval. 3% hydrogen peroxide (15-minute incubation) was used to quench the endogenous peroxidase activity. Sections were stained with PCNA (1:200, Santa Cruz) or Nrf2 (1:200, Novus Biologicals) antibodies for 1 hour at room temperature or overnight at 4° C., respectively. Anti-mouse and anti-rabbit secondary antibodies conjugated to HRP were purchased from Cell Signaling Technology. Signal was detected using a DAB kit (Cell Signaling Technology) and sections were counterstained with hematoxylin (Vector).

[2] = tested on: A549, H460 and A427 cells; assay: Cell growth in 3D culture (0.6% soft agar); type: cell-based, human; settings: 7 days, dose-dependent
Description: (§1) To evaluate cell proliferation in 2D culture, a MTT assay was performed. Cells were seeded in 96-well plates with 2000 cells/well in their corresponding growth media. […] To assess cell growth in 3D culture, A549, H460 and A427 cells were plated in 0.6% soft agar for 7 days. A Cytation 3 imaging reader from BioTek with Gen5 3.04 software was used to quantify colonies. Seven pictures were taken every 100 μm and superimposed together by z-projection function. Colonies>50 μm in diameter were quantified for each cell line.
(§2) Besides its anti-oxidative properties, Nrf2 also contributes to tumor cell growth. Nrf2 not only regulates cell proliferation as a downstream mediator of several onco-proteins but also reprograms cellular metabolism to favor anabolic pathways.

[3] = tested on: A549 cells; assay: Reactive oxygen species (ROS) assay; settings: 24 hours, then tBHP for 15 minutes
Description: DCFDA (10 μM) was added for 2 hrs as an ROS indicator and then cells were treated with tert-butyl hydroperoxide (tBHP, 250 μM) for 15 minutes before harvesting. Then cells were washed with PBS and trypsinized to a single cell suspension. The cell pellet was resuspended in PBS and analyzed using a flow cytometer (Accuri, BD) with the FLA-1 channel. 50,000 events were acquired for each sample. Mean fluorescence intensity (MFI) was calculated using FlowJo software.

[4] = tested on: A549 cells; assay: Chemoresistance assay (Celltiter-glo); settings: 72 hours
Description: Data was normalized to the DMSO control and presented as a percentage of cell viability. Data represent three independent experiments.

[5] = tested on: NF-κB pathway proteins (IκBa, NF-κB, p-NF-κB), cyclinG1 and STAT3; assay: Western blotting of other cellular proteins (selectivity); type: cell-based
Description: Protein concentrations were measured using the BCA assay (Sigma-Aldrich). 20 μg of protein were separated by 10% SDS-PAGE gels and transferred to nitrocellulose membranes. Nrf2 (Novus Biologicals, 1:1000), NQO1 (Abcam, 1:1000), HO-1 (Abcam, 1:1000), Keap1 (Cell Signaling Technology, 1:1000), NF-κB (Cell Signaling Technology, 1:1000), IκBα (Cell Signaling Technology, 1:1000) Cyclin G1 (Santa Cruz, 35 1:1000), β-TrCP (Cell Signaling Technology, 1:1000), STAT3 (Cell Signaling Technology, 1:1000), Ubiquitin (Cell Signaling Technology, 1:1000), Histone 3 (Cell Signaling Technology, 1:4000), GAPDH (Santa Cruz, 1:4000) and Vinculin (Cell Signaling Technology, 1:4000) primary antibodies were applied to detect the corresponding proteins. Secondary antibodies (anti-rabbit or anti-mouse linked to HRP, 1:1000) were purchased from Cell Signaling Technology. ECL Western blotting substrate (GE Healthcare Life Sciences, UK) was used to detect the signal. […] Protein quantification was done using ImageJ.

[6] = tested on: MCF-10A cells; assay: Cell growth assay, MTT, MCF-10A cells; type: cell-based; settings: concentrations<20 μM (data not shown)
Description: as §1, §2

[7] = tested on: Nrf2 pathway; assay: RT-qPCR of targets downstream of Nrf2 in A549 cells; settings: 24 hours of treatment
Description: Total RNA was isolated using a RNeasy Mini Kit (QIAGEN). RNA concentrations were determined using NanoDrop. For each sample, 500 ng RNA was used to synthesize cDNA with high capacity cDNA reverse transcription kits (AppliedBiosystems). Primers were ordered from IDT. AppliedBiosystems Fast SYBR Green Master Mix and the QuantStudio 7 Flex Real-Time PCR system were used to detect gene expression. The delta-delta Ct method was applied to calculate relative gene expression. Values were normalized to the reference gene GAPDH and expressed as fold change compared to DMSO treated samples.

[8] = tested on: A549, H460, A427 and MCF-7 cells; assay: Cell growth assay, MTT, 2D culture, cancer cells; type: cell-based, human; settings: 72 hours
Description: as §1, §2

[9] = target: T1, Nrf2 (Homo sapiens, UniProt Q16236); settings: cited from earlier work
T1 sequence (Q16236 1-605): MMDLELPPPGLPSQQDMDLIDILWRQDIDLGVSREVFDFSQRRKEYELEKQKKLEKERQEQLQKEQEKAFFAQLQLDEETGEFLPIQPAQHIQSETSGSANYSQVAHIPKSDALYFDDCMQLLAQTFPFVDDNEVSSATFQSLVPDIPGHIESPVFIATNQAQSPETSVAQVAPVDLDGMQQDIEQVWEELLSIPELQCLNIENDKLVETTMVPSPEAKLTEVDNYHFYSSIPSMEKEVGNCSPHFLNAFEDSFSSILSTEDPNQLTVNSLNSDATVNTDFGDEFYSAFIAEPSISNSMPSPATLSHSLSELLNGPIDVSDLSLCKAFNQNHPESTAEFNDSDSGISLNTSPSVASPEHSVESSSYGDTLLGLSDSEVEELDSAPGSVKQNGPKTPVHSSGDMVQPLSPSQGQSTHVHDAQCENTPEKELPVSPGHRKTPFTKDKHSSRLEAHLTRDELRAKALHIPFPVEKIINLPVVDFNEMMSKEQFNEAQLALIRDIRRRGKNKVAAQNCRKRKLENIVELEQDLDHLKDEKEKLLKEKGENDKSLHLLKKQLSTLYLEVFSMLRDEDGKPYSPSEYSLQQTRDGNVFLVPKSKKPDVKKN

## N.N.O=C([O-])C1(C(=O)[O-])CCC1.[Pt+2] [Carboplatin, carboplatin, reference compound]
[1]; nude mice, four weeks
  tumor growth (tumor volume): failed to arrest tumor growth

## Cc1cc(C)cc(Nc2nc(C)c(-c3ccccc3)cc2C#N)c1 [Compound 1, 2-((3,5-dimethylphenyl)amino)-6-methyl-5-phenylnicotinonitrile]
[2]
  growth in soft agar: significantly (p<0.05) suppressed the growth
[1]; immunohistochemistry, vs vehicle control group
  expression of Nrf2 protein in the tumors: diminished the expression of Nrf2 protein in the tumors
[1]; nude mice, 50 mg/kg BID i.p., four weeks
  tolerability / body weight: generally well tolerated in the mice without inducing any changes on body weight over time
[1]; nude mice, four weeks
  tumor growth (tumor volume): appeared to slow tumor growth, but the change was not statistically significant
[3]
  ROS production: dose-dependently increased ROS production
[4]
  effect in combination with chemotherapy drugs (carboplatin, doxorubicin, 5-fluorouracil, topotecan) on cell viability: Additive effects
[5]
  levels of NF-κB pathway proteins and other fast turnover proteins (cyclinG1, STAT3): did not change levels
[5]; data not shown
  overall expression pattern of abundant cellular proteins: did not alter the overall expression pattern of abundant cellular proteins
[6]
  cell viability of non-tumorigenic epithelial cells: did not have any effects on cell viability
[7]
  mRNA expression of NFE2L2: did not affect the mRNA expression of NFE2L2
  mRNA expression of targets downstream of Nrf2 (NQO1, GCLC, GCLM, GST1A1, UGT1A6): significantly (p<0.05) decreased the expression of all these downstream genes
[8]; MTT
  sensitivity of Keap1 mutant (A549, H460) vs Keap1 wildtype (A427, MCF-7) cells: higher sensitivity
[8]; Keap1 mutant and Keap1 wild-type cancer cells
  cell proliferation (MTT): inhibited proliferation in various cancer cells

## CCC(=O)O[C@]1(C(=O)CCl)[C@@H](C)C[C@H]2[C@@H]3CCC4=CC(=O)C=C[C@]4(C)[C@@]3(F)[C@@H](O)C[C@@]21C [clobetasol propionate]
[9]
  mechanism of Nrf2 degradation: promotes βTrCP-dependent degradation of Nrf2

## brusatol
[9]
  time for Nrf2 protein levels to return to basal levels: ≤ 8 h
  time of maximum reduction of Nrf2: 2 to 4 h
